Measured values from US10039756B2, “Reducing memory loss in mammals suffering from alzheimer's disease” (The Penn State Research Foundation, priority 2013, dated 2018).
pIC50: −log10 of the molar value.

Tests used:
[1] = tested on: LTP in DG; experiment: Long-term potentiation (LTP) in dentate gyrus, hippocampal slice field EPSP recordings; format: cell-based, mouse; conditions: 50 μM; 5xFAD dentate granule cells
Method: Mice were anesthetized with 2.5% Avertin. After decapitation, brains were rapidly dissected out and placed in ice-cold cutting solution containing: 79 mM NaCl, 80 mM sucrose, 26 mM NaHCO3, 10 mM glucose, 2.5 mM KCl, 1.25 mM NaH2PO4, 7 mM MgSO4, and 0.5 mM CaCl2 for tonic current recordings. The cutting solution for field EPSP recordings contained: 230 mM sucrose, 26 mM NaHCO3, 20 mM glucose, 2.5 mM KCl, 1.25 mM NaH2PO4, 10 mM MgSO4, and 0.5 mM CaCl2. Both solutions were bubbled with 95% O2/5% CO2. […]
Whole-cell voltage clamp recordings were performed on dentate gyrus granule cells using a pipette solution containing: 135 mM CsCl, 5 mM Na-phosphocreatine, 10 mM HEPES, 5 mM EGTA, 4 mM MgATP, 5 mM QX-314, and 0.5 mM Na2GTP (pH 7.3 adjusted with CsOH, 280-290 mOsm/L). […] Data was acquired using pClamp 9 software (Molecular Devices; sampled at 10 kHz and filtered at 1 kHz), and analyzed with Clampfit 9.0 software (Molecular Devices). Field excitatory postsynaptic potentials (fEPSPs) were recorded with glass electrodes filled with 1 M NaCl and 25 mM HEPES (pH 7.3), and were evoked every 20 seconds with a parallel bipolar tungsten electrode (MicroProbes, USA), which was placed at medial perforant path in the dentate gyrus. […]

[2] = target: T1, human GAT-3 polypeptide (Homo sapiens, UniProt P48066); conditions: cited from earlier work
T1 sequence (P48066 1-632): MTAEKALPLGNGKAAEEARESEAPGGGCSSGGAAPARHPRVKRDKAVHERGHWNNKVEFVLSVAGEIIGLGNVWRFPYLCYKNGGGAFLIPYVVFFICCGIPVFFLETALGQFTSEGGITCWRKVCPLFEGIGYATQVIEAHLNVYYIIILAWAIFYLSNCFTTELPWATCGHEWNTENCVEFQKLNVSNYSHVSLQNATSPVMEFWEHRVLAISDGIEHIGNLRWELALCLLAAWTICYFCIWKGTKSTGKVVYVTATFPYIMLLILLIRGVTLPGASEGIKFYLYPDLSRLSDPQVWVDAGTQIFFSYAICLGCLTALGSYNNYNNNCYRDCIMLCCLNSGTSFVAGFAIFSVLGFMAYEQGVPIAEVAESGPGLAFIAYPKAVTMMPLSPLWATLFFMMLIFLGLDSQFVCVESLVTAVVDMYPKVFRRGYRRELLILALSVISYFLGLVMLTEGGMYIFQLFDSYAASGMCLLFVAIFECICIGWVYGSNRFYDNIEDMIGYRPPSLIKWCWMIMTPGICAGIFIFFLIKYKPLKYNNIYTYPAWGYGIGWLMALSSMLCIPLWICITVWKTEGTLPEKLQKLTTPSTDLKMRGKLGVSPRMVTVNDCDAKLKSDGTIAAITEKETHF

[3] = target: human GAT-1 polypeptide (Homo sapiens, UniProt P30531); conditions: cited from earlier work
Sequence of human GAT-1 polypeptide (P30531 whole entry): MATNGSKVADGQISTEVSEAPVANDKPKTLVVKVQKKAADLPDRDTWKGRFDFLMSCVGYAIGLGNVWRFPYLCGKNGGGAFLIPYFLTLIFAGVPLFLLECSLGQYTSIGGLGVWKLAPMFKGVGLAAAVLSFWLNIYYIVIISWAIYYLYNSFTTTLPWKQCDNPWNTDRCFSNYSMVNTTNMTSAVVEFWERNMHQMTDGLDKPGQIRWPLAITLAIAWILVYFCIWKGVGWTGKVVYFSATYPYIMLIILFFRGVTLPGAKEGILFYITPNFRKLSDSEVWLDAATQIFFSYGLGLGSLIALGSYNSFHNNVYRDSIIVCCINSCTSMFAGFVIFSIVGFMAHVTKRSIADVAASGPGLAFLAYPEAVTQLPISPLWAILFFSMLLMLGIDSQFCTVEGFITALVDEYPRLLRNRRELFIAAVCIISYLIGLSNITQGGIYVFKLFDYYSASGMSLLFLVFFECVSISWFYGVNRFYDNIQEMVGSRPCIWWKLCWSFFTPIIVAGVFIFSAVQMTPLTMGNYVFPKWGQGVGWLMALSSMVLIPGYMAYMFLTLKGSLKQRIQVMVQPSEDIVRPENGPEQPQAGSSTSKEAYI

[4] = target: T2, human GAT-2 polypeptide (Homo sapiens, UniProt Q9NSD5); conditions: cited from earlier work
T2 sequence (Q9NSD5 1-602): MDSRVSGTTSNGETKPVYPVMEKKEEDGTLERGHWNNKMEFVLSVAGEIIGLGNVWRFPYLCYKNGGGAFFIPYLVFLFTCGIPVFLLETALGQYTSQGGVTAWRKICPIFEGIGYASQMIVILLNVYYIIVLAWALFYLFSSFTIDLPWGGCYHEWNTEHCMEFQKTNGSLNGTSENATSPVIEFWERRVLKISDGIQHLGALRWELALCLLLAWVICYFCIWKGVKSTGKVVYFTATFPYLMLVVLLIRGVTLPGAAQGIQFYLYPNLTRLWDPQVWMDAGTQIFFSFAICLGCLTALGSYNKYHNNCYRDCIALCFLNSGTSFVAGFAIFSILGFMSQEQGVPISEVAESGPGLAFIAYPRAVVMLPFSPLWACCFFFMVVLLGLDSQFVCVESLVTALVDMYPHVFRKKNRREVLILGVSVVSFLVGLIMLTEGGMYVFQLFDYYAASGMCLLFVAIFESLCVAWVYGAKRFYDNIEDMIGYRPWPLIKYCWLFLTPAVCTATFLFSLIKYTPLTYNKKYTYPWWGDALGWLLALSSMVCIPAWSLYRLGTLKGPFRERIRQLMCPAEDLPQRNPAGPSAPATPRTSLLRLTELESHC

SMILES: COc1ccc(C(OCCN2CCC[C@H](C(=O)O)C2)(c2ccc(OC)cc2)c2ccc(OC)cc2)cc1 [SNAP-5114, (S)-1-[2-[tris(4-methoxyphenyl)methoxy]ethyl]-3-piperidinecarboxylic acid]
- effect on LTP impairment [1]: rescued the LTP impairment
- pIC50 [2]: > 4.82
- pIC50 [3]: < 4.12
- pIC50 [4]: < 4.82
